Our source for the IC50 values is patent US20160237059A1, “HETEROCYCLIC SUBSTITUTED TRIFLUOROMETHYL PYRIMIDINONES AND THEIR USE” (BAYER PHARMA AKTIENGESELLSCHAFT, priority 2013, published 2016).

One experiment has as its target T1, human CCR2 (Homo sapiens, UniProt P41597).
T1 construct: host or cells: Chem-1 cell line
T1 sequence (P41597 1-360 isoform P41597-2): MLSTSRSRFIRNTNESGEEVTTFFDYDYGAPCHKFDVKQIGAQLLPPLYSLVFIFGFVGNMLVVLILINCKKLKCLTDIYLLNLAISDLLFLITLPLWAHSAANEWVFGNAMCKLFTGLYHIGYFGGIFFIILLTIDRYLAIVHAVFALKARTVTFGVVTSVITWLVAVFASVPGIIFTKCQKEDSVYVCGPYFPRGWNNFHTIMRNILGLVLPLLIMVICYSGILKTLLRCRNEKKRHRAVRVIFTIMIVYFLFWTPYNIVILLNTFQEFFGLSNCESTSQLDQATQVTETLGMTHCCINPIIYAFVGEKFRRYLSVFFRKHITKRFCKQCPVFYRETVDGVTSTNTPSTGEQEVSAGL
As to the kind of experiment: Functional Ca2+ release test (B-1). Format: cell-based. The note with it: Chem-1 cell line transfected with human CCR2; 50% inhibition of the MCP-1 effect, MCP-1 at EC50 (about 5 nM); in some cases means of several determinations. On the procedure:
The antagonistic action of test substances on CCR2 was determined in a functional Ca^2+ release test. Binding of CCL2/MCP-1 to CCR2 leads to a change in the conformation of the receptor resulting in Gi/Gq protein activation and intracellular signal cascade. This involves, inter alia, an intracellular Ca^2+ release. The test cell used was a Chem-1 cell line transfected with human CCR2 (ChemiSCREEN™ CCR2B Calcium-Optimized FLIPR Cell Line, Merck Millipore).
(§1) The test substances were dissolved in dimethyl sulphoxide (DMSO) at a concentration of 10 mM and serially diluted with DMSO in steps of 1:3.16 for a 10-point dose/activity analysis. According to the desired test concentrations, the substances were pre-diluted in Tyrode with 2 mM CaCl2 and 0.05% BSA.
The cells, cultivated in DMEM high glucose [supplemented with 10% FCS, 1 mM pyruvate, 15 mM HEPES, 500 μg/ml geniticin and non-essential amino acids (NEAA)], were sown at 5000 cells/25 μl in 384 well, μCLEAR/black cell culture plates from Greiner (#781092) and incubated at 37° C. for 24 h. The sowing medium consisted of DMEM high glucose [supplemented with 5% FCS, 1 mM pyruvate, 15 mM HEPES, 50 U/ml penicillin, 50 μg/ml streptomycin and non-essential amino acids (NEAA)]. The medium was then removed and the cells were charged for 60 min at 37° C. with Fluo-4 dye [25 μl Tyrode with 3 μM Fluo-4 AM (1 mM DMSO stock solution), 0.4 mg/ml Brilliant Black, 2.5 mM probenicid, 0.03% Pluronic F-127]. The cells were pre-incubated for 10 min with 10 μl of the test substances diluted in buffer, and 20 μl of agonist solution (MCP-1 in Tyrode with 0.05% BSA) were then added. MCP-1 was employed at the concentration which corresponds to the EC50 which had been determined in a preliminary test (usually about 5 nM). Ca^2+ release was monitored over a period of 120 s in 1 s increments in a proprietary fluorescence imaging reader. The molar concentration of the test substance which caused 50% inhibition of the MCP-1 effect (IC50) was determined using a 4-parameter logistic function (Hill function).

Another experiment deals with T2, murine CCR2 (Mus musculus, UniProt P51683).
T2 construct: host or cells: U2OS β-arrestin cell line
T2 sequence (P51683 whole entry): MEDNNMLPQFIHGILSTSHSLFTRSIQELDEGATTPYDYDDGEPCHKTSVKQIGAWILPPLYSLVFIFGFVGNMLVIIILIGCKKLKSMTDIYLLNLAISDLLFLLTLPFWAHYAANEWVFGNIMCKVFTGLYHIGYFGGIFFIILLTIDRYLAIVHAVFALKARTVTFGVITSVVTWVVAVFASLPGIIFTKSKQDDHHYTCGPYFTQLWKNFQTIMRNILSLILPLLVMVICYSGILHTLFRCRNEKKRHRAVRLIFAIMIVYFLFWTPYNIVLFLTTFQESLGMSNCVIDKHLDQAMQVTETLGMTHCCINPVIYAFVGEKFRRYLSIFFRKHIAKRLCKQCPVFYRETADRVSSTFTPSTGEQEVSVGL
Description: Functional β-arrestin recruiting test with murine MCP-1 (B-2b). It is filed as cell-based. The note with it: U2OS β-arrestin cell line transfected with murine CCR2; agonist murine MCP-1; in some cases means of several determinations. The protocol:
The antagonistic action of test substances on CCR2 was determined in a β-arrestin test. The PathHunter β-arrestin GPCR test system (DiscoveRx Corporation, Ltd.) is a cell-based functional method for detecting binding of β-arrestin to an activated receptor. The molecular basis is a […] complementation measured by the enzymatic conversion of a chemiluminescent substrate. The test cell used was a U2OS β-arrestin cell line transfected with murine CCR2 (93-0543C3, DiscoveRx Corporation, Ltd.).
as §1
The cells, cultivated in MEM Eagle (supplemented with 10% FCS, 50 U/ml of penicillin, 50 μg/ml of streptomycin, 250 μg/ml of hygromycin and 500 μg/ml of geniticin), were sown at 2000 cells/25 μl in 384 well, μCLEAR/black cell culture plates from Greiner (#781092) and incubated at 37° C. for 24 h. The sowing medium consisted of Opti-MEM (supplemented with 1% FCS, 50 U/ml of penicillin and 50 μg/ml of streptomycin). The cells were pre-incubated for 10 min with 10 μl of the test substances diluted in buffer, and 10 μl of agonist solution [human MCP-1 (PeproTech, #300-04) in Tyrode with 0.05% BSA) were then added. The human MCP-1 was employed at the concentration which corresponds to the EC50 which had been determined in a preliminary test (usually about 3 nM). After 90 min of incubation at 37° C., the solution was removed, and recruitment of β-arrestin to CCR2 was detected with the aid of the PathHunter detection reagent (93-001, DiscoveRx Corporation, Ltd.) according to the instructions of the manufacturer. Luminescence was measured after an incubation time of 60 min using a proprietary luminescence imaging measuring instrument. The molar concentration of the test substance which caused 50% inhibition of the MCP-1 effect (IC50) was determined using a 4-parameter logistic function (Hill function).
The test was carried out in a manner identical to that described above under B-2a, but using murine MCP-1 (PeproTech, #250-10) as agonist.
(In general: Arrestin recruitment assays detect the binding of arrestin to an activated receptor.)

Usually IC50 stands for the concentration that inhibits the measured activity by half. Low readings indicate greater potency, high ones weaker potency. `COc1ccc(-c2nc(C(F)(F)F)c(Oc3ccc(Cl)c(Cl)c3)c(=O)[nH]2)nc1` [Example 148, 5-(3,4-dichlorophenoxy)-2-(5-methoxypyridin-2-yl)-6-(trifluoromethyl)pyrimidin-4(3H)-one]: the IC50 at human CCR2 was found to be 42 nM; on murine CCR2 it was 454 nM.

As for `Cn1nc(-c2nc(C(F)(F)F)c(Oc3ccc(Cl)c(C(F)(F)F)c3)c(=O)[nH]2)c2cccnc21` [Example 206], the half-inhibitory concentration (IC50) was found to be 12 nM against human CCR2 and 1990 nM at murine CCR2.

For the molecule `Nc1ccc(-c2nc(C(F)(F)F)c(Oc3ccc(Cl)c(Cl)c3)c(=O)[nH]2)nn1` [Example 121, 2-(6-aminopyridazin-3-yl)-5-(3,4-dichlorophenoxy)-6-(trifluoromethyl)pyrimidin-4(3H)-one], the IC50 against human CCR2 was determined as 0.5 nM; at murine CCR2 it was 149 nM.

For `Cn1nc(-c2nc(C(F)(F)F)c(Oc3ccc(Cl)c(Cl)c3)c(=O)[nH]2)c2ccccc21` [Example 136, 5-(3,4-dichlorophenoxy)-2-(1-methyl-1H-indazol-3-yl)-6-(trifluoromethyl)pyrimidin-4(3H)-one], the IC50 was determined as 39 nM at human CCR2 and 1220 nM at murine CCR2.

On to `C[S+]([O-])c1cccnc1-c1nc(C(F)(F)F)c(Oc2ccc(Cl)c(C(F)(F)F)c2)c(=O)[nH]1` (centres unmarked) [Example 265], for which the IC50 was 12 nM against human CCR2 and 257 nM on murine CCR2.

On to `Cc1ccc(-c2nc(C(F)(F)F)c(Oc3ccc(Cl)c(Cl)c3)c(=O)[nH]2)nc1C` [Example 157, 5-(3,4-dichlorophenoxy)-2-(5,6-dimethylpyridin-2-yl)-6-(trifluoromethyl)pyrimidin-4(3H)-one], for which the figures for the IC50 against human CCR2 and at murine CCR2 were 14 nM and 1510 nM, respectively.

For `CCCc1cc(-c2nc(C(F)(F)F)c(Oc3ccc(Cl)c(C(F)(F)F)c3)c(=O)[nH]2)no1` [Example 216], the IC50 at human CCR2 was determined as 4.6 nM; at murine CCR2, 1320 nM.

For `Cn1nc(-c2nc(C(F)(F)F)c(Oc3ccc(Cl)c(Cl)c3)c(=O)[nH]2)c2cccnc21` [Example 205], the 50% inhibitory concentration (IC50) on human CCR2 was 26 nM; at murine CCR2 it was 2490 nM.

Take `O=c1[nH]c(-c2ccon2)nc(C(F)(F)F)c1Oc1ccc(Cl)c(C(F)(F)F)c1` [Example 230]: the half-inhibitory concentration (IC50) on human CCR2 turned out to be 0.4 nM; at murine CCR2, 44 nM.

`O=c1[nH]c(-n2cc(C(F)(F)F)cn2)nc(C(F)(F)F)c1Oc1ccc(Cl)c(Cl)c1` [Example 253]: the values for the 50% inhibitory concentration (IC50) against human CCR2 and at murine CCR2 were 240 nM and 4230 nM, respectively.

Consider `O=c1[nH]c(-c2ncccc2Cl)nc(C(F)(F)F)c1Oc1ccc(Cl)cc1` [Example 210], for which the values for the IC50 at human CCR2 and on murine CCR2 were 3 nM and 349 nM, respectively.

As to `CSc1cnn(-c2nc(C(F)(F)F)c(Oc3ccc(Cl)c(Cl)c3)c(=O)[nH]2)c1` [Example 248], the half-inhibitory concentration (IC50) amounted to 2.2 nM at human CCR2 and 1230 nM at murine CCR2.

As for `COc1nccnc1-c1nc(C(F)(F)F)c(Oc2ccc(Cl)c(Cl)c2)c(=O)[nH]1` [Example 117, 5-(3,4-dichlorophenoxy)-2-(3-methoxypyrazin-2-yl)-6-(trifluoromethyl)pyrimidin-4(3H)-one], the results for the IC50 on human CCR2 and at murine CCR2 were 0.3 nM and 36 nM, respectively.

Take `CC(C)Oc1ccc(-c2nc(C(F)(F)F)c(Oc3ccc(Cl)c(Cl)c3)c(=O)[nH]2)cn1` [Example 163, 5-(3,4-dichlorophenoxy)-2-(6-isopropoxypyridin-3-yl)-6-(trifluoromethyl)pyrimidin-4(3H)-one]: the 50% inhibitory concentration (IC50) against human CCR2 was 129 nM; at murine CCR2, 7680 nM.

For the molecule `COc1cccc(-c2nc(C(F)(F)F)c(Oc3ccc(Cl)c(C(F)(F)F)c3)c(=O)[nH]2)n1` [Example 149, 5-[4-chloro-3-(trifluoromethyl)phenoxy]-2-(6-methoxypyridin-2-yl)-6-(trifluoromethyl)pyrimidin-4(3H)-one], the IC50 at human CCR2 is 0.7 nM; on murine CCR2, 526 nM.

`CNc1cccc(-c2nc(C(F)(F)F)c(Oc3ccc(Cl)c(C(F)(F)F)c3)c(=O)[nH]2)n1` [Example 167, 5-[4-chloro-3-(trifluoromethyl)phenoxy]-2-[6-(methylamino)pyridin-2-yl]-6-(trifluoromethyl)pyrimidin-4(3H)-one]: the values for the IC50 against human CCR2 and on murine CCR2 were 2.7 nM and 153 nM, respectively.

Turning to `O=c1[nH]c(-c2cccc[n+]2[O-])nc(C(F)(F)F)c1Oc1ccc(Cl)c(Cl)c1` [Example 161, 5-(3,4-dichlorophenoxy)-2-(1-oxidopyridin-2-yl)-6-(trifluoromethyl)pyrimidin-4(3H)-one], the IC50 on human CCR2 came to 2.3 nM; at murine CCR2 it was 432 nM.

As to `CN(C)c1ccc(-c2nc(C(F)(F)F)c(Oc3ccc(Cl)c(Cl)c3)c(=O)[nH]2)nn1` [Example 200], the IC50 on human CCR2 came out at 1.2 nM; at murine CCR2, 359 nM.

On to `O=c1[nH]c(-c2cccnc2)nc(C(F)(F)F)c1Cc1ccc(Cl)c(C(F)(F)F)c1` [Example 165, 5-[4-chloro-3-(trifluoromethyl)benzyl]-2-(pyridin-3-yl)-6-(trifluoromethyl)pyrimidin-4(3H)-one], for which the IC50 turned out to be 14 nM on human CCR2 and 3370 nM at murine CCR2.

For the molecule `CS(=O)(=O)c1cccnc1-c1nc(C(F)(F)F)c(Oc2ccc(Cl)c(C(F)(F)F)c2)c(=O)[nH]1` [Example 266, 5-[4-Chloro-3-(trifluoromethyl)phenoxy]-2-[3-(methylsulphonyl)pyridin-2-yl]-6-(trifluoromethyl)pyrimidin-4(3H)-one], the values for the IC50 at human CCR2 and on murine CCR2 were 1.8 nM and 196 nM, respectively.

For the molecule `CCc1cc(-c2nc(C(F)(F)F)c(Oc3ccc(Cl)c(C(F)(F)F)c3)c(=O)[nH]2)no1` [Example 217], the IC50 was found to be 1.8 nM on human CCR2 and 874 nM at murine CCR2.

With `O=c1[nH]c(-c2cccnc2)nc(C(F)(F)F)c1Oc1ccc(Cl)c(C(F)(F)F)c1` [Example 164, 5-[4-chloro-3-(trifluoromethyl)phenoxy]-2-(pyridin-3-yl)-6-(trifluoromethyl)pyrimidin-4(3H)-one], the IC50 against human CCR2 was found to be 16 nM; on murine CCR2, 798 nM.

Take `COc1ccc2c(-c3nc(C(F)(F)F)c(Oc4ccc(Cl)c(C(F)(F)F)c4)c(=O)[nH]3)noc2c1` [Example 207]: the IC50 at human CCR2 was determined as 81 nM; on murine CCR2 it was 4490 nM.

As to `COc1c[nH]nc1-c1nc(C(F)(F)F)c(Oc2ccc(Cl)c(Cl)c2)c(=O)[nH]1` [Example 213], the IC50 was 0.6 nM on human CCR2 and 49 nM at murine CCR2.

As for `Nc1ccc(-c2nc(C(F)(F)F)c(Oc3ccc(Cl)c(Cl)c3)c(=O)[nH]2)nc1` [Example 123, 2-(5-aminopyridin-2-yl)-5-(3,4-dichlorophenoxy)-6-(trifluoromethyl)pyrimidin-4(3H)-one], the IC50 was determined as 0.6 nM at human CCR2 and 28 nM at murine CCR2.
